Holding throughout (assay): DTP human tumour cell line panel, 48 h
The subject of assay [1] is 786-0 renal.
Assay [2] deals with CAKI-1 renal.
Assay [3] concerns COLO 205 colon.
Assay [4] relates to IGROV1 ovarian.
The subject of assay [5] is KM12 colon.
The subject of assay [6] is SF-539 CNS.
Assay [7] has as its system SK-MEL-2 melanoma.
The test system of assay [8] is SN12C renal.
Assay [9] has as its system UACC-257 melanoma.

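Protocol summary: plate cells (96-well), add compound at 5 concentrations, incubate 48 h, interpolate endpoints linearly. The concentration for full growth arrest is given as TGI.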

Usually TGI stands for the concentration at which net growth stops. As to `O=S(O)CCCCSSCCCCSSCCCCS(=O)O`, the TGI was > 100 µM in assay [1]; > 100 µM in [2]; 83.6 µM in assay [3]; > 100 µM in assay [4]; > 100 µM in [5]; > 100 µM in assay [6]. In addition, the TGI in assay [7], in [8] and in assay [9] was > 100 µM throughout.
As to `CSc1nc(NC2OC(COC(C)=O)C(OC(C)=O)C(OC(C)=O)C2OC(C)=O)c2c(OC(C)=O)c(C)c(=O)oc2n1` (stereo not given), the concentration for total growth inhibition (TGI) in assay [1], in assay [2], in assay [3], in assay [4], in [5] and in [6] was > 100 µM throughout. For the same molecule, the TGI in assay [7], in assay [8] and in assay [9] was > 100 µM in each case.
Consider `CC(=O)NC(CCCN)C(=O)NCc1ccccc1` (stereo not given), for which the concentration for total growth inhibition (TGI) in [1], in assay [2], in assay [3], in assay [4], in assay [5] and in [6] was > 100 µM throughout. Besides, the TGI in assay [7], in [8] and in [9] was > 100 µM each time.
In the case of `COc1ccc(OC)c(/C=C/NC=O)c1`, the total growth inhibition concentration (TGI) in [1], in assay [2], in assay [3], in assay [4], in assay [5] and in [6] was > 100 µM throughout. Also, the concentration for total growth inhibition (TGI) in assay [7], in assay [8] and in assay [9] was > 100 µM in each case.
Turning to `Nc1c(-c2ccc(Br)cc2)[n+]([O-])c2ccccc2[n+]1[O-]`, the concentration for total growth inhibition (TGI) in assay [1], in assay [2], in assay [3], in assay [4], in assay [5] and in [6] was > 100 µM each time. The TGI in [7], in [8] and in [9] was > 100 µM each time.
For the molecule `C#CC[C@]12CC(=O)CC[C@H]1CC(=O)C2`, the TGI in assay [1], in assay [2], in [3], in assay [4], in [5] and in assay [6] was > 100 µM each time. Besides, the total growth inhibition concentration (TGI) in assay [7], in [8] and in assay [9] was > 100 µM each time.
Regarding `Cc1ccc(C(=O)/C=C/c2ccccc2O)c(C)c1`, the TGI in assay [1], in assay [2], in assay [3], in [4], in assay [5] and in assay [6] was > 100 µM in each case. In addition, the concentration for total growth inhibition (TGI) in [7], in assay [8] and in assay [9] was > 100 µM each time.
For `NCCCNCCSSCCCCS(=O)O`, the concentration for total growth inhibition (TGI) in assay [1] was > 100 µM; in [2], > 100 µM; in [3] it was 35.7 µM; in assay [4], > 100 µM; in [6], > 100 µM; in [8] it was > 100 µM. This molecule gave a TGI in assay [9] of 78.5 µM.
On to `NC1C2(CCCCCC2)NC(=O)C12CCCCCC2` (stereo not given), for which the TGI in assay [1], in assay [2], in assay [3], in [4], in assay [5] and in assay [6] was > 100 µM throughout. In addition, the TGI in assay [7], in assay [8] and in [9] was > 100 µM each time.
`CC(=O)c1ccc(NC(=O)/C(Cc2ccccn2)=N/NC(=O)C[N+](C)(C)C)cc1`: the concentration for total growth inhibition (TGI) in [1], in assay [2], in assay [3], in assay [4], in assay [5] and in [6] was > 100 µM each time. The total growth inhibition concentration (TGI) in assay [7], in assay [8] and in [9] was > 100 µM in each case.
As for `CCc1cccc(C)c1NC(C)=O`, the TGI in [1], in assay [2], in assay [4], in assay [5], in assay [6] and in [7] was > 100 µM throughout. Further, the TGI in [9] was > 100 µM.
In the case of `N#CCCN(c1ccc(/C=C2\N=C(c3ccc(Cl)cc3)OC2=O)cc1)S(=O)(=O)c1ccccc1`, the total growth inhibition concentration (TGI) in assay [1], in [2], in [3], in [4], in [5] and in assay [6] was > 100 µM throughout. Further, the TGI in [7], in assay [8] and in assay [9] was > 100 µM in each case.
As for `O=C(NC1CCCCCC1)C1C(=O)N(C2CCCCCC2)C(=O)/C1=N\O` (stereo not given), the TGI is > 100 µM in assay [1]; > 100 µM in [2]; 31.2 µM in [3]; > 100 µM in [4]; > 100 µM in assay [5]; 61.3 µM in [6]. Besides, the TGI in [7] is 40.3 µM; in [8], > 100 µM; in assay [9], > 100 µM.
`Cc1ccc(N=NC(C(=O)c2ccccc2)C(=O)c2ccccc2)cc1`: the total growth inhibition concentration (TGI) in [1] is 40 µM; in assay [2], 85 µM; in [3] it was 52.4 µM; in assay [4] it was > 100 µM; in [5], > 100 µM; in assay [6] it was 97.3 µM. For the same molecule, the figures for the TGI in assay [7], in [8] and in assay [9] were 55.4 µM, 55.2 µM and > 100 µM, respectively.
In the case of `CCCCCCCCCCCCCCCCOP(=O)(O)Oc1ccc(/C=C\c2ccc(OP(=O)(O)OCCCCCCCCCCCCCCCC)cc2)cc1`, the TGI is > 100 µM in [1]; > 100 µM in [2]; 33.6 µM in assay [3]; > 100 µM in assay [4]; > 100 µM in assay [5]; > 100 µM in assay [7]. Moreover, the TGI in [8] and in [9] was > 100 µM each time.
